Tested on: SDF-1
Assay: Western blot of SDF-1 in hypoxia-reoxygenation treated cells pre-treated with pathway inhibitors
Format: cell-based, human
Details: pre-treatment 10 μM
Protocol: Western blot was also performed to examine the expression of SDF-1, G-CSF, CXCR4, and G-CSF-R in the above-described cells that were treated with hypoxia-reoxygenation. Briefly, cells were placed in a hypoxic chamber (Bug Box, Ruskinn Technology, UK) at 37° C. for 12 hours. The chamber was continuously flushed with 95% N2-5% CO2 to maintain a gas phase PO2 of <1 mmHg (OM-14 oxygen monitor; SensorMedics Corporation, Yorba Linda, Calif.). After each hypoxic treatment, the cells were returned to a 37° C. normoxic incubator (95% air-5% CO2) for different time durations (30 minutes, 1 hour, 4 hours, 12 hours, 24 hours, and 48 hours) of reoxygenation. Cell samples were then collected at each time point and stored at -80° C. For Western blot, the samples were lysed in a buffer containing 320 mM sucrose, 5 mM HEPES, 1 μg/ml leupeptin, 1 μg/ml aprotinin. The resulting lysate were centrifuged at 13,000 g for 15 minutes. The pellet was resuspended in a sample buffer (62.5 mM Tris-HCl, 10% glycerol, 2% SDS, 0.1% bromophenol blue, and 50 mM DTT) and subjected to SDS-polyacrylamide gel (4-12%) electrophoresis. […] The intensity of each detected band was quantified using a Kodak Digital Science 1D Image Analysis System (Eastman Kodak, Rochester, N.Y.). […]

With `COc1cccc(-c2cc(=O)c3ccccc3o2)c1N` [PD98059] the “expression of SDF-1” value was “stayed at the control level”.

From patent US8329166B2, “Pluripotent olfactory stem cells” (Academia Sinica, priority 2005, dated 2012)
